These results are taken from patent US4329495A, “Enkephalinase enzyme inhibiting compounds” (Pfizer Inc., priority 1981, dated 1982).

Where only a bound is given, the exact number is not on record here.

In assay [1] the test system is abdominal stretching after phenylbenzoquinone (PBQ). As to the kind of experiment: analgesic activity: blockade of abdominal stretching after phenylbenzoquinone (PBQ). Type of assay: in vivo, mice, Carworth CF-1 strain. Details: key: (a): No significant activity noted at this dose level. The conditions noted are these: s.c., 20 min. pre-treatment. As for the experimental part:
To test for the analgesic activity of the compounds of the present invention, a chemical nociceptive stimulus is employed, viz., blockade of abdominal stretching after phenylbenzoquinone (PBQ). […] The animals to be used are fasted for 15-16 hr. before the start of the experiment. Fifteen mice (groups of 5) weighing 11-15 g. are employed per dose level. Compounds are given by the oral or subcutaneous route. Drug pre-treatment times are 1 hr. (p.o.) and 20 min. (s.c.). Pairs of mice are injected with 2 mg./kg. of PBQ i.p. and placed in a lucite box (11×7×9.5 in.) maintained at 40° by a thermostatically controlled water bath. Starting 5 min. later the animals are observed for 5 min. and the number of abdominal stretching responses per animal is recorded. A stretch is considered to represent an intermittent contraction of the abdomen, hind limb extension, pelvic rotation, or opisthotonos (the abdomen of the mouse touches the floor of the cage and is dragged the length of the cage). The degree of analgesic protection is calculated on the basis of the suppression of writhing relative to control animals run on the same day (% MPE). This test reflects the ultimate clinical utility of the compounds as analgesic agents.

Assay [2] addresses T1, enkephalinase (Rattus norvegicus, UniProt P07861).
T1 construct: whole brain (minus cerebellum) is removed from Sprague-Dawley CD male rats; from tissue; host or cells: rat whole brain minus cerebellum (Sprague-Dawley CD male rats, Charles River); washed membranes solubilized with 1% Triton X-100
T1 sequence (P07861 1-750): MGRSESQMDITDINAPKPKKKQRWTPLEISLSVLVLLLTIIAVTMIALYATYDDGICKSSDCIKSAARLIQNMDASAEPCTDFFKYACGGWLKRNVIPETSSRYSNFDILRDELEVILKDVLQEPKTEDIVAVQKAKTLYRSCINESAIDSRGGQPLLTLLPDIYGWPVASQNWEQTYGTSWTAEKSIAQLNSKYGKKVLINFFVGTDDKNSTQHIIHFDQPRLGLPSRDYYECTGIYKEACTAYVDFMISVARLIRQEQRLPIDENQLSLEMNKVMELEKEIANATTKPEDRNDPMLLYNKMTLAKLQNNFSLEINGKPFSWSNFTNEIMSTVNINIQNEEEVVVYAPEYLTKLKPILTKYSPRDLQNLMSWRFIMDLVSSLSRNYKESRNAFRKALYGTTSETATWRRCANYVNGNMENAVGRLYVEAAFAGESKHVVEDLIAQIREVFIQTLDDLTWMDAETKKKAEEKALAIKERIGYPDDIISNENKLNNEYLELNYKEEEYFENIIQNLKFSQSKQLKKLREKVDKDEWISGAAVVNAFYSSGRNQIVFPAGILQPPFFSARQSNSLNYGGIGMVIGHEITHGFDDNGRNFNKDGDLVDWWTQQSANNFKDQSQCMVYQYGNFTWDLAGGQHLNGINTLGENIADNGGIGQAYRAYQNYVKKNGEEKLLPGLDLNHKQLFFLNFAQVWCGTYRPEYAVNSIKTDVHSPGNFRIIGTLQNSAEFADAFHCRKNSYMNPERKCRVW
As to the kind of experiment: inhibition of enkephalinase enzyme in vitro (Tyr-gly-gly formation from 3H-leucine-enkephalin). Type of assay: biochemical, Sprague-Dawley CD male rats (whole brain minus cerebellum). The following applies: pH 7.7, 37° C., 1 hour.
Method: The compounds of the present invention are studied in vitro for inhibition of enkephalinase enzyme in the following manner. To prepare the enzyme, whole brain (minus cerebellum) is removed from Sprague-Dawley CD male rats (Charles River Breeding Laboratories, Inc., Wilmington, MA; 200-250 g.) following decapitation. The tissue is homogenized (Polytron, Brinkmann Instruments, Inc., Westbury, NY) in 30 volumes (w/v) of ice-cold 50 mM Tris-HCl tris(hydroxymethyl)methylamine hydrochloride, Fisher Scientific Co., Fair Lawn, NJ) pH 7.7 buffer. The homogenate in centrifuged at 50,000×g. for 15 minutes. The pellet is resuspended in 50 mM Tris-HCl pH 7.7 buffer and centrifuged at 50,000×g. for 15 minutes. The resultant pellet is resuspended and centrifuged 3 additional times as described above. The membrane pellet is dispersed in 15 volumes of 50 mM Tris-HCl pH 7.7 buffer containing 1% Triton X-100 (Rohm and Haas, Philadelphia, PA) and incubated at 37° C. for 45 minutes. After centrifugation at 100,000×g. for 60 minutes, the solubilized enzymes are frozen in 2 ml. aliquots (this preparation can be stored frozen for 3 months).
One set of control tubes contains boiled enzyme (heated at 100° C. for 10 minutes) for blank. The reaction is stopped by boiling tubes for 10 minutes, followed by centrifugation for 1 minute in the Beckman Microfuge centrifuge. A ten microl aliquot of each supernatant is spotted on a thin layer chromatography (TLC) plate (Silica Gel 60, 20×20 cm, E. Merck, Darmstadt, Germany) using 1-8 samples per plate. Ten microl of a standard mixture consisting of 0.4 mg./ml. tyrosine (tyr, Mann Research Laboratories, Inc., New York, NY), 1 mg./ml. L-tyrosylglycine (tyr-gly Sigma), 1 mg./ml. L-tyrosylglycylglycine (tyr-gly-gly, Sigma) and 1 mg./ml. leucine-enkephalin (leu-E, Calbiochem-Behring Corp., La Jolla, CA) are spotted on top of each incubation mixture spot, as well as separately on each plate, to aid in zone indentification.
Plates are dried and placed in covered glass tanks equilibrated with 100 ml. of isopropanol:ethyl acetate:5% acetic acid (2:2:1). After development of the TLC plates, the separated products were visualized by spraying with a ninhydrin:acetone (0.5%, w/v) solution and heating for 10 minutes at 100° C. in a vacuum oven. Rf values of standard markers are: tyr, 0.33; tyr-gly, 0.20: tyr-gly-gly, 0.13; leu-E, 0.47. The radioactive spots are identified by the added markers and scraped into scintillation vials to which 1 ml. ethanol is added, followed by 10 ml. Aquasol-2 (New England Nuclear). Vials are kept overnight and counted for radioactivity in a liquid scintillation counter. Tyr-gly-gly formation is based on the difference between total counts per minute for this TLC zone minus the corresponding value obtained by using boiled enzyme (blank). […]

The subject of assay [3] is supramaximal electroconvulsive shock (ECS). As to the kind of experiment: anticonvulsant effect vs. supramaximal electroconvulsive shock (ECS) in mice. It is filed as in vivo, Charles River males, Swiss CD strain. The following applies: for ED50: Mus musculus, sc, mice, 1 hr. before ECS. As for the experimental part:
The anticonvulsant activity of the compounds of the present invention is determined by testing in mice, viz., Charles River males, Swiss CD strain (17-21 g.), fasted for 18 hr. before testing. Groups of mice are treated with a range of levels of the test compounds, and 1 hr. later with supramaximal electroconvulsive shock (ECS), administered for 0.2 sec. at 50 mA, 60 Hz, through transcorneal electrodes. After administration of the electrical stimulus, each mouse is observed for 10 sec. for the presence or absence of hind limb tonic extension. […] Blockade of supramaximal ECS in mice is a common laboratory test for clinical utility as an anticonvulsant, and certain known anticonvulsant drugs show activity in this test.

For the next assay, the system named is tail withdrawal test. The following applies: mice; Roques et al.; cited from earlier work.
The next assay concerns hot plate jump test. The following applies: mice; Roques et al.; cited from earlier work.
The test system of assay [4] is enkephalinase. The following applies: Roques et al., Nature 288, 286-288 (1980); cited from earlier work.

On to `CSCC[C@@H](CO)NC(=O)[C@@H](CS)Cc1ccc(Cl)cc1` [I (X=4-Cl, R=H, n=2, m=0, R^1=CH3)], for which the “Percent Blockade of Abdominal Stretching (% MPE) After Phenylbenzoquinone” value in assay [1] (320 mg./kg.) is 86 % MPE.
Take `COc1ccc(C[C@H](CS)C(=O)N[C@H](CO)CCSC)cc1` [I (X=4-OCH3, R=H, n=2, m=0, R^1=CH3)]: the “Percent Blockade of Abdominal Stretching (% MPE) After Phenylbenzoquinone” value in assay [1] (320 mg./kg.) is reported as 62 % MPE.
The IC50 is the midpoint of a concentration-inhibition curve. The term ED50 denotes the dose at which the effect has come halfway, by size or by number of responders. Take `CSCC[C@@H](CO)NC(=O)[C@@H](CS)Cc1ccccc1` [I (X=H, R=H, n=2, m=0, R^1=CH3)]: the IC50 at enkephalinase [2] came out at 480 nM. It took a dose of 178 mg/kg to reach the 50% effect level in assay [3] (ED50). Besides, the entries for the “Percent Blockade of Abdominal Stretching (% MPE) After Phenylbenzoquinone” value in assay [1] (170 mg./kg.), in assay [1] (233 mg./kg.) and in assay [1] (320 mg./kg.) were 23 % MPE, 69 % MPE and 100 % MPE, respectively.
Consider `CSCC[C@@H](CO)NC(=O)[C@H](CS)Cc1ccc(Cl)cc1` [II (X=4-Cl, R=H, n=2, m=0, R^1=CH3)], for which the “Percent Blockade of Abdominal Stretching (% MPE) After Phenylbenzoquinone” value in assay [1] (320 mg./kg.) was 75 % MPE.
Same read-out and setting: the result for `COc1ccc(C[C@@H](CS)C(=O)N[C@H](CO)CCSC)cc1` [II (X=4-OCH3, R=H, n=2, m=0, R^1=CH3)] reads 46 % MPE.
On to `CSCC[C@@H](CO)NC(=O)[C@H](CS)Cc1ccccc1` [II (X=H, R=H, n=2, m=0, R^1=CH3)], for which half-maximal inhibition on enkephalinase [2] (IC50) was put at 9600 nM. In addition, the “Percent Blockade of Abdominal Stretching (% MPE) After Phenylbenzoquinone” value in assay [1] (320 mg./kg.) was “(a)”.
On enkephalinase [2], `CSCC[C@H](NC(=O)[C@H](CS)Cc1ccccc1)C(=O)O` [III] displayed an IC50 of 9.1 nM. For the same molecule, in assay [3], the 50% effect level (ED50) was put at a dose of 74.1 mg/kg. The “Percent Blockade of Abdominal Stretching (% MPE) After Phenylbenzoquinone” value in assay [1] (160 mg./kg.) was determined as 57 % MPE.
The like results for `CSCC[C@H](NC(=O)[C@@H](CS)Cc1ccccc1)C(=O)O` [IV] were, in that order, 70 nM, 141 mg/kg and 48 % MPE.
With `O=C(O)CNC(=O)C(CS)Cc1ccccc1` (stereo not shown) [Thiorphan, N-(2-benzyl-3-mercaptopropionyl)glycine], the “analgesic (antinociceptive) activity, tail withdrawal test (in words)” value with tail withdrawal test was “not in the so-called tail withdrawal test”. Moreover, in the assay on hot plate jump test, the “analgesic (antinociceptive) activity, hot plate jump test (in words)” value was “elicit analgesic (antinociceptive) activity”. Also, the “enkephalinase inhibition (in words)” value in the assay with enkephalinase [4] is “specific enkephalinase inhibitor”. Also, the ED50 in assay [3] was over 320 mg/kg. In assay [3] (even at a much higher dose), the “anticonvulsant activity (in words)” value was “inactive”.
